The subject of series [1] is tobacco cutworms (Prodenia litura Fabrficius). Description: Test on insecticidal efficacy on tobacco cutworms. Type of series: in vivo. As to conditions: 500 ppm in artificial feed, 4th-instar larvae, 6 days; wettable powder of Formulation Example 5 (contains Fenitrothion). The procedure: A wettable powder of each of compounds Nos. 3, 7, 8, 9, 11, 12, 13, 14, 17, 18 and 31 of the invention obtained in accordance with Formulation Example 5 was diluted with water to 200 times (corresponding to a concentration of 500 ppm). Two milliliters of the dilution was impregnated in 13 g of an artificial feed for tobacco cutworms, and the feed was put in a polyethylene cup having a diameter of 11 cm. Ten 4th-instar larvae of tobacco cutworms were released into the cup, and examined for mortality 6 days later. The above experiment was carried out through two replicates.

In series [2] the test system is carmine mites (Tetranychus telarius L.). Description: Miticidal effect on carmine mites. Type of series: in vivo. Further details: key: -: Hardly any injury was observed.; +: Some injury was observed.; ++: The same injury as in the non-treated area was noted. As to conditions: 500 ppm active ingredient, spray plus soil, kidney beans, 8 days later. The procedure: Female imagoes of carmine mites were caused to live at a rate of 10 per leaf on bineless kidney beans (in the primary leaf stage) in pots 7 days after sowing, and kept in a constant temperature chamber at 25° C. Six days later, a chemical obtained by diluting a wettable powder of each of compounds Nos. 4-6, 9-13, 15, 16, 21, 22, 25, 28-30, 33, 34, 36, 37 and 38 with water to an active ingredient concentration of 500 ppm was sprayed at a rate of 10 ml per pot, and at the same time, 2 ml of the chemical was poured into the soil. Eight days later, injuries to the plants by the mites were examined.
The degree of injury is shown by -, + and ++ as follows: […]

The test system of series [3] is Caetomium globosum ATCC 6205. Description: Test on fungicidal effect on fungi (agar medium diluting method). Type of series: cell-based. As to conditions: PDA, 27° C., cultivation period 3 days (compound 18: 4 days). The procedure:
(§1) By an agar medium diluting method, the fungicidal activities of compounds Nos. 12, 17, 18, 23, 24, 26, 27 and 32 of the invention on fungi doing harm to industrial products and materials were examined.
(§2) A hypha piece, 5 mm in diameter, of each of the fungi indicated in Table 3 was inoculated in a potato dextrose agar medium (PDA) containing each of the above compounds, and cultivated at 27° C. After the lapse of a predetermined period, the growth state of the fungus was observed, and the minimum inhibitory concentration of the compound was determined.

In series [4] the test system is Penicillium citrinum ATCC 9849. The description is as above. Type of series: cell-based. As to conditions: PDA, 27° C., cultivation period 4 days. The procedure:
as §1, §2

In series [5] the test system is Cladosporium herbarum TAMF 517. The description is as above. As to conditions: PDA, 27° C., cultivation period 4 days. Type of series: cell-based. The procedure: as §1, §2
Series [6] has as its system Aspergillus niger ATCC 6275. The description is as above. Type of series: cell-based. The following applies: PDA, 27° C., cultivation period 4 days. The procedure:
as §1, §2

In a further series the test system is Plasmopara viticola. The experiment in a line: Test on fungicidal effect on downy mildew of grape. Type of series: in vivo. As to conditions: sprayed on grape seedlings. From the text: Sandy soil was filled in plastic pots, and seeds of grape (variety: Neomuscat) were sown, and grown for about 1 month in a greenhouse to obtain young seedlings of grape in the 2-3 leaf stage. A water dilution of an emulsifiable concentrate of a wettable powder of each of the test compounds was sprayed onto the leaves of these seedlings so that the chemical adhered fully to the surfaces of the leaves. After drying the chemical in air, a suspension of conidospores of a […] pathogen of grape (Plasmopara viticola) was inoculated in the seedling by spraying. The seedlings were placed for 2 days in a high humidity condition at 23° C., and subsequently cultivated for 14 days in a greenhouse kept at 20° to 25° C. to cause onset of the disease. Thereafter, the state of the disease was observed.
The degree of disease was calculated by the following method. The examined leaves were classified by indices of 0, 0.5, 1, 2 and 4 according to the degrees of appearance of lesions, and the degree of disease was calculated from the following equation.
0: No fungus colony or lesion was noted on the surface of the leaves.
The control index was calculated from the following equation. [formula]

Series [7] relates to marine animals and plants. The experiment in a line: Test on antifouling effects on marine animals and plants in the sea. Type of series: in vivo. As to conditions: antifouling paint on vinyl chloride plate, Owase Bay. The procedure:
A ship bottom antifouling paint was prepared by adding 24 g of Rosin WW, 12 g of a vinyl copolymer, 4 g of tricresyl phosphate, 10 g of bentonite, 20 g of baryta, 20 g of red iron oxide, 35 g of xylene and 35 g of methyl isobutyl ketone to 40 g of each of compounds Nos. 2, 8, 14, 17, 20 and 32 of the invention and vigorously stirring the mixture at room temperature for 1 hour. The paint was coated on both surfaces of a rigid vinyl chloride resin plate, 17×9×0.3 cm in size, to a dry thickness of about 200 microns. The coated plate was submerged in the sea in Owase Bay, Mie Prefecture, Japan for 12 months, and its fouled state was regularly observed.
The symbols in the table show the following.

The next series has as its system Culex pipiens. The experiment in a line: Test on insecticidal effect on Culex pipiens. Type of series: in vivo. As to conditions: 3.5 ppm, wettable powder of Formulation Example 5 (contains Fenitrothion); for Death rate: final-instar larvae, next day, 1440 min; for Emergence inhibition rate: when all larvae in non-treated area emerged. The procedure:
A wettable powder of each of compounds Nos. 2, 7, 8, 11, 13, 14, 17, 18 and 31 obtained in accordance with Formulation Example 5 was diluted with water to 3.5 ppm. One hundred milliliters of the dilution was put in each of 180 ml. polyethylene cups and 20 final-instar larvae of Culex pipiens were released into the cup. On the next day, the larvae were examined for mortality.
Thereafter, feeds were added to the test areas, and when all larvae n the non-treated area emerged, the emergence inhibition rate was examined.
The death rate and the emergence inhibition rate were rated by three grades as follows: […]

In the case of `CCC[CH2][Sn]([CH2]CCC)([CH2]CCC)[S]CCC[Si]12OC(C)CN(CC(C)O1)CC(C)O2` (stereo not shown) [compound 12], the Death rate in series [1] is recorded as 100%. The Degree of injury entry in [2] was “-”. Besides, the Minimum inhibitory concentration in [3], in series [4], in [5] and in series [6] was under 12.5 ppm each time. Also, the Control index in the series on Plasmopara viticola (12.5 ppm active ingredient), with Plasmopara viticola (50 ppm active ingredient) and in the series on Plasmopara viticola (200 ppm active ingredient) was 100% in each case.
`CCC[CH2][Sn]([CH2]CCC)([CH2]CCC)[S]CCC[Si]12OCCN(CCO1)CCO2` [compound 14] returned a Death rate in series [1] of 100%. In [7], the “Fouled state, period of submerging 4 months” value was “.circle”; the “Fouled state, period of submerging 8 months” value was “.circle”; the “Fouled state, period of submerging 12 months” value is listed as “.circle”. Moreover, in the series with Culex pipiens, the Death rate entry is “A (90% or higher)” and the Emergence inhibition rate result is listed as “A (90% or higher)”.
On to `CC[CH2][Sn]([CH2]CC)([CH2]CC)[S]CCC[Si]12OCCN(CC(CC)O1)CC(CC)O2` (stereo not shown) [compound 23], for which the Minimum inhibitory concentration in series [3], in series [4], in series [5] and in series [6] was under 2.5 ppm in each case.
On to `CC(C)[CH2][Sn]([CH2]C(C)C)([CH2]C(C)C)[S]CCC[Si]12OC(C)CN(CC(C)O1)CC(C)O2` (stereo not shown) [compound 27], for which the Minimum inhibitory concentration in [3], in series [4], in [5] and in [6] was under 12.5 ppm each time.
Consider `CCC[CH2][Sn]([CH2]CCC)([CH2]CCC)[S]CCC[Si]12OCCN(CCO1)CC(C)O2` (stereo not shown) [compound 24], for which the Minimum inhibitory concentration in series [3], in [4], in series [5] and in series [6] was under 12.5 ppm in each case.
As to `CCC1CN2CC(C)O[Si](CCC[S][Sn]([c]3ccccc3)([c]3ccccc3)[c]3ccccc3)(OC(C)C2)O1` (stereo not shown) [compound 32], the Minimum inhibitory concentration in series [3], in series [4], in series [5] and in series [6] was under 12.5 ppm each time. Besides, the “Fouled state, period of submerging 4 months” value in series [7] is “.circle”. Also, the “Fouled state, period of submerging 8 months” value in [7] was “.circle”. The “Fouled state, period of submerging 12 months” value in series [7] was “.circle”.
Consider `CC[CH2][Sn]([CH2]CC)([CH2]CC)[S]CCC[Si]12OC(C)CN(CC(C)O1)CC(C)O2` (stereo not shown) [compound 18], for which the values for the Death rate (in series [1]; with Culex pipiens) were 100% and “B (less than 90% to 10%)”, respectively. The Minimum inhibitory concentration in series [3] is given as under 12.5 ppm; in series [4] it was under 12.5 ppm; in series [5], under 12.5 ppm; in series [6] it was under 2.5 ppm. The Emergence inhibition rate result in the series on Culex pipiens is “A (90% or higher)”.
In the case of `CC[CH2][Sn]([CH2]CC)([CH2]CC)[S]CCC[Si]12OCCN(CCO1)CCO2` [compound 17], the Death rate in series [1] is reported as 100%; with Culex pipiens it was “C (less than 10%)”. For the same compound, the Minimum inhibitory concentration in series [3] is given as under 2.5 ppm; in [4] it was under 2.5 ppm; in series [5], under 12.5 ppm; in [6] it was under 2.5 ppm. The “Fouled state, period of submerging 4 months” value in series [7] is “.circle”. Further, in series [7], the “Fouled state, period of submerging 8 months” value was “.circle”. In [7], the “Fouled state, period of submerging 12 months” value is “.circle”. The Emergence inhibition rate result with Culex pipiens is “A (90% or higher)”.
As to `CC(C)[CH2][Sn]([CH2]C(C)C)([CH2]C(C)C)[S]CCC[Si]12OCCN(CCO1)CCO2` [compound 26], the Minimum inhibitory concentration in [3], in series [4], in [5] and in series [6] was under 12.5 ppm each time.
The compound `CCC[CH2][Sn]([CH2]CCC)([CH2]CCC)[S]CC[Si]12OC(C)CN(CC(C)O1)CC(C)O2` (stereo not shown) [compound 8] gave a Death rate in [1] of 100%. Further, in series [7], the “Fouled state, period of submerging 4 months” value is reported as “.circle”; the “Fouled state, period of submerging 8 months” value is listed as “.circle”; the “Fouled state, period of submerging 12 months” value is recorded as “.circle”. Besides, the Control index with Plasmopara viticola (12.5 ppm active ingredient) stood at 94%. The compound also gave a Control index in the series on Plasmopara viticola (50 ppm active ingredient) of 100%. In the series on Plasmopara viticola (200 ppm active ingredient), this compound yielded a Control index of 100%. In the series with Culex pipiens, the Death rate result was “B (less than 90% to 10%)” and the Emergence inhibition rate entry is “A (90% or higher)”.
